Our source for the EC50 and IC90 values is patent publication US20240228488A1 (TAKEDA PHARMACEUTICAL COMPANY LIMITED, priority 2021, published 2024).

Assay [1] concerns the target human activated kallikrein enzyme (Homo sapiens, UniProt P03952). Briefly: Plasma kallikrein inhibition, fluorogenic PFR-AMC substrate, 500 pM activated kallikrein format. It is filed as biochemical. Particulars: 500 pM activated kallikrein, 300 uM PFR-AMC, 30 min preincubation, 10 min reaction; read-out: Primary Dose Response Assay: Average EC50. The procedure, abridged:
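Enzyme (500 pM) was preincubated with inhibitor for 30 min at room temperature in 20 mM Tris pH 7.5, 1 mM EDTA, 150 mM NaCl, 0.1% PEG-400 and 0.1% Triton X-100. The reaction was started with 300 uM PFR-AMC, run 10 min, and fluorescence read at 460 nm (380 nm excitation). EC50 derived.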

Another assay addresses T1, plasma kallikrein (Homo sapiens, UniProt P03952).
T1 construct: from tissue
The assay is described as follows: Neat human plasma assay, FXIIa contact pathway-activated, PFR-AMC substrate. It is filed as biochemical. Conditions: citrated human plasma 78% final, 10 nM human FXIIa, 100 μM PFR-AMC; read-out: Human Plasma Assay: IC90. The procedure, abridged: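 Citrated human plasma (78% final) with compound, contact-activated by 10 nM human FXIIa in pKal buffer pH 7.5, with 100 μM PFR-AMC. Fluorescence (360/480 nm) followed 5 min at room temperature; rates versus concentration fitted by 4-parameter equation for IC50/IC90.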

human activated kallikrein enzyme, sequence (P03952 391-638 limits assumed): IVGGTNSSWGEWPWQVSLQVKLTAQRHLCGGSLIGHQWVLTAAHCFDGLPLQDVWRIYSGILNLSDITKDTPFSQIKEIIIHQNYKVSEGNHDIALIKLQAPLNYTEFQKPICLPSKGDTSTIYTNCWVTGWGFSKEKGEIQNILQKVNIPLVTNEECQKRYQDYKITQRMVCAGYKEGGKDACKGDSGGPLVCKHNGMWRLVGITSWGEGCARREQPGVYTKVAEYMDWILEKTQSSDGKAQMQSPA
human activated kallikrein enzyme, sequence (P03952 20-390 partner limits assumed): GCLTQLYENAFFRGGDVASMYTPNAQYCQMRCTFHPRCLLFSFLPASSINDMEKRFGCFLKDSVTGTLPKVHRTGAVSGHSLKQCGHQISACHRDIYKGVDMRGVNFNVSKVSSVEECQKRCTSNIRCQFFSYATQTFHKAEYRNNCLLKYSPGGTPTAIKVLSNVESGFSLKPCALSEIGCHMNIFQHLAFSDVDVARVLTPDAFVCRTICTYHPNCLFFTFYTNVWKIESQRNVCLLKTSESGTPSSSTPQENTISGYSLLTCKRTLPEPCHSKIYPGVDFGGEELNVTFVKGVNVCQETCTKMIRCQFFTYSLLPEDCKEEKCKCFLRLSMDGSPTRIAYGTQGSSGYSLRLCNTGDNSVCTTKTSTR
T1 sequence (P03952 391-638 limits assumed): as the sequence (P03952 391-638 limits assumed) above
T1 sequence (P03952 20-390 partner limits assumed): as the sequence (P03952 20-390 partner limits assumed) above

What is called EC50 is the concentration at which the effect is half-maximal. The IC90 is the point of the concentration-response curve where the effect stands at 90%. In the case of `Cc1ccnc([C@H]2C[C@@H]2C(=O)Nc2cc(N(C)Cc3cn4cc(C5CC5)cc(S(C)(=O)=O)c4n3)nc(C)n2)n1` [Example I-161, (1S,2S)-N-(6-(((6-cyclopropyl-8-(methylsulfonyl)imidazo[1,2-a]pyridin-2-yl)methyl)(methyl)amino)-2-methylpyrimidin-4-yl)-2-(4-methylpyrimidin-2-yl)cyclopropane-1-carboxamide], the half-maximal effective concentration (EC50) in assay [1] is less than 1 nM. Moreover, the IC90 on plasma kallikrein was 1500 to 10000 nM.
On the same counts, the results for `CS(=O)(=O)c1cc(C2CC2)cn2cc(CNc3cc(NC(=O)[C@H]4C[C@@H]4c4cccc(Cl)c4)ncn3)nc12` [Example I-162, (1S,2S)-2-(3-chlorophenyl)-N-(6-(((6-cyclopropyl-8-(methylsulfonyl)imidazo[1,2-a]pyridin-2-yl)methyl)amino)pyrimidin-4-yl)cyclopropane-1-carboxamide] are 1 to 10 nM and 1500 to 10000 nM.
On the same counts, the results for `CN1C(=O)CN(c2cc(C3CC3)cn3cc(CNc4cc(NC(=O)[C@H]5C[C@@H]5c5cccc(Cl)c5)ncn4)nc23)C1=O` [Example I-169, (1S,2S)-2-(3-chlorophenyl)-N-(6-(((6-cyclopropyl-8-(3-methyl-2,4-dioxoimidazolidin-1-yl)imidazo[1,2-a]pyridin-2-yl)methyl)amino)pyrimidin-4-yl)cyclopropane-1-carboxamide] are less than 1 nM and 400 to 1500 nM.
On the same counts, the results for `O=C(Nc1cc(NCc2cn3cc(C4CC4)cc(N4CCOC4=O)c3n2)ncn1)[C@H]1C[C@@H]1c1cc(Cl)ccn1` [Example I-172, (1S,2S)-2-(4-chloropyridin-2-yl)-N-(6-(((6-cyclopropyl-8-(2-oxooxazolidin-3-yl)imidazo[1,2-a]pyridin-2-yl)methyl)amino)pyrimidin-4-yl)cyclopropane-1-carboxamide] are less than 1 nM and 400 to 1500 nM.
Take `O=C(Nc1cc(NCc2cn3cc(C4CC4)cc(N4CCOC4=O)c3n2)ncn1)[C@H]1C[C@@H]1c1cccc(Cl)c1` [Example I-174, (1S,2S)-2-(3-chlorophenyl)-N-(6-(((6-cyclopropyl-8-(2-oxooxazolidin-3-yl)imidazo[1,2-a]pyridin-2-yl)methyl)amino)pyrimidin-4-yl)cyclopropane-1-carboxamide]: the EC50 in assay [1] was less than 1 nM. For the same compound, the concentration for an effect of 90% (IC90) at plasma kallikrein lay within 1500 to 10000 nM.
Take `CN1CC(c2cc(C3CC3)cn3cc(CNc4cc(NC(=O)[C@H]5C[C@@H]5c5cccc(Cl)c5)ncn4)nc23)C1` [Example I-193, (1S,2S)-2-(3-chlorophenyl)-N-(6-(((6-cyclopropyl-8-(1-methylazetidin-3-yl)imidazo[1,2-a]pyridin-2-yl)methyl)amino)pyrimidin-4-yl)cyclopropane-1-carboxamide]: the EC50 in assay [1] was less than 1 nM. In addition, on plasma kallikrein, the IC90 is less than 400 nM.
On the same counts, the results for `CN1C(=O)CCN(c2cc(C3CC3)cn3cc(CNc4cc(NC(=O)[C@H]5C[C@@H]5c5cccc(Cl)c5)ncn4)nc23)C1=O` [Example I-194, (1S,2S)-2-(3-chlorophenyl)-N-(6-(((6-cyclopropyl-8-(3-methyl-2,4-dioxotetrahydropyrimidin-1(2H)-yl)imidazo[1,2-a]pyridin-2-yl)methyl)amino)pyrimidin-4-yl)cyclopropane-1-carboxamide] are less than 1 nM and 1500 to 10000 nM.
On the same counts, the results for `O=C(Nc1cc(NCc2cn3cc(C4CC4)cc(N4CCN5CC(O)CC5C4)c3n2)ncn1)[C@H]1C[C@@H]1c1cccc(Cl)c1` (stereo partly drawn) [Example I-196, (1S,2S)-2-(3-chlorophenyl)-N-(6-(((6-cyclopropyl-8-(7-hydroxyhexahydropyrrolo[1,2-a]pyrazin-2(1H)-yl)imidazo[1,2-a]pyridin-2-yl)methyl)amino)pyrimidin-4-yl)cyclopropane-1-carboxamide] are 1 to 10 nM and 1500 to 10000 nM.
On the same counts, the results for `CN1CC(O)(c2cc(C3CC3)cn3cc(CNc4cc(NC(=O)[C@H]5C[C@@H]5c5cccc(Cl)c5)ncn4)nc23)C1` [Example I-198, (1S,2S)-2-(3-chlorophenyl)-N-(6-(((6-cyclopropyl-8-(3-hydroxy-1-methylazetidin-3-yl)imidazo[1,2-a]pyridin-2-yl)methyl)amino)pyrimidin-4-yl)cyclopropane-1-carboxamide] are less than 1 nM and less than 400 nM.
For the compound `CC1(C)CN(c2cc(C3CC3)cn3cc(CNc4cc(NC(=O)[C@H]5C[C@@H]5c5cccc(Cl)c5)ncn4)nc23)C(=O)O1` [Example I-199, (1S,2S)-2-(3-chlorophenyl)-N-(6-(((6-cyclopropyl-8-(5,5-dimethyl-2-oxooxazolidin-3-yl)imidazo[1,2-a]pyridin-2-yl)methyl)amino)pyrimidin-4-yl)cyclopropane-1-carboxamide], the EC50 in assay [1] lay within 1 to 10 nM. Moreover, the IC90 on plasma kallikrein was 1500 to 10000 nM.
On the same counts, the results for `O=C(Nc1cc(NCc2cn3cc(C4CC4)cc(N4CCN5CCCC5C4)c3n2)ncn1)[C@H]1C[C@@H]1c1cccc(Cl)c1` (stereo partly drawn) [Example I-200, (1S,2S)-2-(3-chlorophenyl)-N-(6-(((6-cyclopropyl-8-(hexahydropyrrolo[1,2-a]pyrazin-2(1H)-yl)imidazo[1,2-a]pyridin-2-yl)methyl)amino)pyrimidin-4-yl)cyclopropane-1-carboxamide] are less than 1 nM and 400 to 1500 nM.
On the same counts, the results for `O=C(Nc1cc(NCc2cn3cc(C4CC4)cc(N4CCN(C5COC5)CC4)c3n2)ncn1)[C@H]1C[C@@H]1c1cccc(Cl)c1` [Example I-202, (1S,2S)-2-(3-chlorophenyl)-N-(6-(((6-cyclopropyl-8-(4-(oxetan-3-yl)piperazin-1-yl)imidazo[1,2-a]pyridin-2-yl)methyl)amino)pyrimidin-4-yl)cyclopropane-1-carboxamide] are 1 to 10 nM and 400 to 1500 nM.
On the same counts, the results for `CC(=O)c1cc(C2CC2)cn2cc(CNc3cc(NC(=O)[C@H]4C[C@@H]4c4cccc(Cl)c4)ncn3)nc12` [Example I-207, (1S,2S)-N-(6-(((8-acetyl-6-cyclopropylimidazo[1,2-a]pyridin-2-yl)methyl)amino)pyrimidin-4-yl)-2-(3-chlorophenyl)cyclopropane-1-carboxamide] are 1 to 10 nM and 1500 to 10000 nM.
Consider `CN1C(=O)CN(c2cc(C3CC3)cn3cc(CNc4ccnc(NC(=O)[C@H]5C[C@@H]5c5cccc(Cl)c5)c4)nc23)C1=O` [Example I-209, (1S,2S)-2-(3-chlorophenyl)-N-(4-(((6-cyclopropyl-8-(3-methyl-2,4-dioxoimidazolidin-1-yl)imidazo[1,2-a]pyridin-2-yl)methyl)amino)pyridin-2-yl)cyclopropane-1-carboxamide], for which, in assay [1], the EC50 is less than 1 nM. Also, the IC90 at plasma kallikrein lay in the range of 400 to 1500 nM.
On the same counts, the results for `CN1CC(F)(c2cc(C3CC3)cn3cc(CNc4ccnc(NC(=O)[C@H]5C[C@@H]5c5cccc(Cl)c5)c4)nc23)C1` [Example I-227, (1S,2S)-2-(3-chlorophenyl)-N-(4-(((6-cyclopropyl-8-(3-fluoro-1-methylazetidin-3-yl)imidazo[1,2-a]pyridin-2-yl)methyl)amino)pyridin-2-yl)cyclopropane-1-carboxamide] are less than 1 nM and less than 400 nM.
On the same counts, the results for `O=C(Nc1cc(NCc2cn3cc(C4CC4)cc(N4CCN5CC(O)CC5C4)c3n2)ccn1)[C@H]1C[C@@H]1c1cccc(Cl)c1` (stereo partly drawn) [Example I-228, (1S,2S)-2-(3-chlorophenyl)-N-(4-(((6-cyclopropyl-8-(7-hydroxyhexahydropyrrolo[1,2-a]pyrazin-2(1H)-yl)imidazo[1,2-a]pyridin-2-yl)methyl)amino)pyridin-2-yl)cyclopropane-1-carboxamide] are less than 1 nM and 400 to 1500 nM.
On the same counts, the results for `CN1CCC(F)(c2cc(C3CC3)cn3cc(CNc4ccnc(NC(=O)[C@H]5C[C@@H]5c5cccc(Cl)c5)c4)nc23)CC1` [Example I-229, (1S,2S)-2-(3-chlorophenyl)-N-(4-(((6-cyclopropyl-8-(4-fluoro-1-methylpiperidin-4-yl)imidazo[1,2-a]pyridin-2-yl)methyl)amino)pyridin-2-yl)cyclopropane-1-carboxamide] are less than 1 nM and less than 400 nM.
`O=C(Nc1cc(NCc2cn3cc(C4CC4)cc(N4CCN5CCCC5C4)c3n2)ccn1)[C@H]1C[C@@H]1c1cccc(Cl)c1` (stereo partly drawn) [Example I-231, (1S,2S)-2-(3-chlorophenyl)-N-(4-(((6-cyclopropyl-8-(hexahydropyrrolo[1,2-a]pyrazin-2(1H)-yl)imidazo[1,2-a]pyridin-2-yl)methyl)amino)pyridin-2-yl)cyclopropane-1-carboxamide]: the EC50 in assay [1] was less than 1 nM. In addition, the IC90 at plasma kallikrein was in the range of 400 to 1500 nM.
Consider `O=C(Nc1cc(NCc2cn3cc(C4CC4)cc(N4CCN(C5CC5)CC4)c3n2)ccn1)[C@H]1C[C@@H]1c1cccc(Cl)c1` [Example I-232, (1S,2S)-2-(3-chlorophenyl)-N-(4-(((6-cyclopropyl-8-(4-cyclopropylpiperazin-1-yl)imidazo[1,2-a]pyridin-2-yl)methyl)amino)pyridin-2-yl)cyclopropane-1-carboxamide], for which the EC50 in assay [1] was less than 1 nM. Also, the concentration for an effect of 90% (IC90) on plasma kallikrein fell in the range of 1500 to 10000 nM.
On the same counts, the results for `O=C(Nc1cc(NCc2cn3cc(C4CC4)cc(N4CCN(C5COC5)CC4)c3n2)ccn1)[C@H]1C[C@@H]1c1cccc(Cl)c1` [Example I-233, (1S,2S)-2-(3-chlorophenyl)-N-(4-(((6-cyclopropyl-8-(4-(oxetan-3-yl)piperazin-1-yl)imidazo[1,2-a]pyridin-2-yl)methyl)amino)pyridin-2-yl)cyclopropane-1-carboxamide] are less than 1 nM and 400 to 1500 nM.
